From patent publication US8940304B2, “Monoclonal antibodies against the PBP2-A protein and homologous sequences for the treatment of infections by and immunodiagnostics of bacteria of the firmicutes phylum” (priority 2009, dated 2015)

How the values were obtained:
CEB-MRSA = experiment: Comparative in vivo protection antibody versus vancomycin, renal quantification, Assay I; design: species or system Staphylococcus aureus
Description: Four groups of female 8-week Balb/C mice (4 animals per group) received an infective dose of 6.0×10^7 bacteria (CEB-MRSA) by intraperitoneal route. The animals received doses of purified monoclonal antibody (MAB), vancomycin, MAB+vancomycin, and negative control, according to the groups below:
group 1: MAB (400 micrograms) (first day)
group 2: vancomycin (150 micrograms, intramuscular route, 12/12 hours)
group 3: vancomycin+MAB (350 micrograms) (1 day after infection)
The first doses of antibody and vancomycin were administered 4 hours after the administration of the infective dose. The animals were subjected to euthanasia in the fourth day, and the kidneys were aseptically removed and subjected to renal qualification, according to what was previously described.
In this study, the animals were infected and the administration of the antimicrobial or monoclonal antibodies was started just after four hours of infection. The study was conducted with three distinct groups: one treated with vancomycin, other treated with monoclonal antibodies, and a third one with simultaneous administration of antimicrobial+antibodies. Vancomycin doses were adjusted and administered in a way similar to the cases of infections in humans (500 mg every 12 hours).

CEB MRSA = experiment: Comparative in vivo protection antibody versus vancomycin, renal quantification, Assay II; design: species or system Staphylococcus aureus; details: antibody 500 μg
Description: This assay was performed in the same way as the previous one, but, with a lower infective dose (7.0×10^6 bacteria), with the group 1 being treated with 500 micrograms of purified monoclonal antibody; group 2 being treated with vancomycin (150 micrograms, intramuscular route, 12/12 hours; 5 doses); group 3 being treated with vancomycin+500 micrograms of monoclonal antibody; and group 4 being control (non-treated animals).

## CN[C@H](CC(C)C)C(=O)N[C@H]1C(=O)N[C@@H](CC(N)=O)C(=O)N[C@H]2C(=O)N[C@H]3C(=O)N[C@H](C(=O)N[C@H](C(=O)O)c4cc(O)cc(O)c4-c4cc3ccc4O)[C@H](O)c3ccc(c(Cl)c3)Oc3cc2cc(c3O[C@@H]2O[C@H](CO)[C@@H](O)[C@H](O)[C@H]2O[C@H]2C[C@](C)(N)[C@H](O)[C@H](C)O2)Oc2ccc(cc2Cl)[C@H]1O [vancomycin]
CEB-MRSA; Assay I: 6.0×10^7 bacteria CEB MRSA IP, treatment from 4 hours after infection, three days after infection, vancomycin every 12 hours (5 doses)
  reduction in the quantity of bacteria present in the kidneys versus non-treated animals: around 15 times
CEB-MRSA; Assay I: 6.0×10^7 bacteria CEB MRSA, antibody 400 μg, vancomycin 5 doses, antibody (300 μg)+vancomycin
  bacteria recovered from kidneys, mean of group: 172,250 bacteria
CEB MRSA; Assay II: 7.0×10^6 bacteria CEB MRSA, vancomycin every 12 hours (5 doses), antibody (500 μg)+vancomycin
  bacteria recovered from kidneys, mean of group: 720 bacteria
CEB MRSA; Assay II: lower infective dose 7.0×10^6 bacteria CEB MRSA, vancomycin 5 doses, combination
  reduction of bacteria in kidneys versus non-treated animals: 35 times
